Measurements published in patent US8039490B2, “Benzoyl-piperidine derivatives as dual modulators of the 5-HT2A and D3 receptors” (Hoffmann-La Roche Inc., priority 2006, dated 2011).
Values joined by “and” are separate entries in the source; they are usually repeats but may differ in a detail not shown here. Identical values can stand only once.

What was measured:
[1] = molecular target: T1, human D2 dopamine receptor (Homo sapiens, UniProt P14416); assay: Radioligand binding, human D2 receptor ([3H]-spiperone); settings: third value of the cell; membranes of transfected HEK-293 EBNA cells, 0.7 nM [3H]-spiperone; read-out: Ki(nM) D3/5HT2A/D2: D2
T1 construct: expressed in transfected cells; host or cells: HEK-293 EBNA cells (transient transfection), membrane preparation
Description: (§1) The cells were harvested 48 h post-transfection, washed three times with cold PBS and stored at −80° C. prior to use. The pellet was suspended in cold 50 mM Tris-HCl buffer containing 10 mM EDTA (pH 7.4) and homogenized with a Polytron (Kinematica AG, Basel, Switzerland) for 20-30 sec at 12.000 rpm. After centrifugation at 48.000×g for 30 min at 4° C., the pellet was resuspended in cold 10 mM Tris-HCl buffer containing 0.1 mM EDTA (pH 7.4), homogenized, and centrifuged as above. This pellet was further resuspended in a smaller volume of ice cold 10 mM Tris-HCl buffer containing 0.1 mM EDTA (pH 7.4) and homogenized with a Polytron for 20-30 sec at 12.000 rpm. The protein content of this homogenate was determined with the Bio-Rad (Bradford) Protein Assay (Biorad Laboratories GmbH, München, Germany) according to the instructions of the manufacturer using gamma globulin as the standard. This homogenate was stored at −80° C. in aliquots and thawed immediately prior to use.
(§2) Aliquots of membrane preparations were thawed at RT, resupended in assay buffer (D2, D3: 50 mM Tris-HCl, 120 mM NaCl, 5 mM MgCl2, 1 mM EDTA, 5 mM KCl, 1.5 mM CaCl2, pH=7.4; 5-HT2A: 50 mM Tris-HCl, 10 mM MgCl2, 1 mM EGTA, pH=7.4), homogenized with a Polytron for 20-30 sec at 12.000 rpm and adjusted to a final concentration of approximately 7.5 μg protein/well (D2, D3) and 15 μg protein/well (5-HT2A), respectively.
(§3) The binding affinity (Ki) of the compounds was determined using radioligand binding. […] The nonspecific binding was determined with equally composed reaction mixtures in the presence of 10 μM unlabelled spiperone. Per well 45 μl of Microscint 40 (Perkin Elmer, Schwerzenbach, Switzerland) was added, plates for sealed, shaken for 20 min and counted for 3 min on a Topcount Microplate Scintillation Counter (Canberra Packard SA, Zürich, Switzerland) with quenching correction.
(§4) The CPM value for each duplicate of a concentration of competing compound was averaged (y1), then the % specific binding was calculated according to the equation (((y1−non-specific)/(total binding-non-specific))×100). Graphs were plotted with the % specific binding using XLfit, a curve fitting program that iteratively plots the data using Levenburg Marquardt algorithm. The single site competition analysis equation used was y=A+((B−A)/(+((x/C)^D))), where y is the % specific binding, A is the minimum y, B is the maximum y, C is the IC50, x is the log10 of the concentration of the competing compound and D is the slope of the curve (the Hill Coefficient). […] The affinity constant (Ki) was calculated using the Cheng-Prusoff equation KI =(IC50/1+([L]/Kd), where [L] is the concentration of radioligand and Kd is the dissociation constant of the radioligand at the receptor as determined by the saturation isotherm.

[2] = molecular target: T2, human 5-HT2A serotonin receptor (Homo sapiens, UniProt P28223); assay: Radioligand binding, human 5-HT2A receptor ([3H]-ketanserin); settings: second value of the cell; membranes of transfected HEK-293 EBNA cells, 1.1 nM [3H]-ketanserin; read-out: Ki(nM) D3/5HT2A/D2: 5HT2A
T2 construct: expressed in transfected cells; host or cells: HEK-293 EBNA cells (transient transfection), membrane preparation
Description: as §1, §2, §3, §4

[3] = molecular target: T3, human D3 dopamine receptor (Homo sapiens, UniProt P35462); assay: Radioligand binding, human D3 receptor ([3H]-spiperone); settings: first value of the cell; membranes of transfected HEK-293 EBNA cells, 0.5 nM [3H]-spiperone; read-out: Ki(nM) D3/5HT2A/D2: D3
T3 construct: expressed in transfected cells; host or cells: HEK-293 EBNA cells (transient transfection), membrane preparation
Description: as §1, §2, §3, §4

T2 sequence (P28223 whole entry): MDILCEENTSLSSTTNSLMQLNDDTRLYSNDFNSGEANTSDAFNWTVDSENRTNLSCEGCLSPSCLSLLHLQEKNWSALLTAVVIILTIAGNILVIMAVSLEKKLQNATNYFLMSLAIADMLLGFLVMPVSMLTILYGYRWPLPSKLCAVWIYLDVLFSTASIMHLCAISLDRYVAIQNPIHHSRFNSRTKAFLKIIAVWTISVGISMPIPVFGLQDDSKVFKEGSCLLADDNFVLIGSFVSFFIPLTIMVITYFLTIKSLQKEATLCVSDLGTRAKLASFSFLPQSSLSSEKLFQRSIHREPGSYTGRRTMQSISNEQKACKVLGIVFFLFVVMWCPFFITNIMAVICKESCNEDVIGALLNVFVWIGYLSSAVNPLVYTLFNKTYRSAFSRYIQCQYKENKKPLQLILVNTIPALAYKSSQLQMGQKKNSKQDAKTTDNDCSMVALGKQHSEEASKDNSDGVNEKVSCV
T1 sequence (P14416 whole entry): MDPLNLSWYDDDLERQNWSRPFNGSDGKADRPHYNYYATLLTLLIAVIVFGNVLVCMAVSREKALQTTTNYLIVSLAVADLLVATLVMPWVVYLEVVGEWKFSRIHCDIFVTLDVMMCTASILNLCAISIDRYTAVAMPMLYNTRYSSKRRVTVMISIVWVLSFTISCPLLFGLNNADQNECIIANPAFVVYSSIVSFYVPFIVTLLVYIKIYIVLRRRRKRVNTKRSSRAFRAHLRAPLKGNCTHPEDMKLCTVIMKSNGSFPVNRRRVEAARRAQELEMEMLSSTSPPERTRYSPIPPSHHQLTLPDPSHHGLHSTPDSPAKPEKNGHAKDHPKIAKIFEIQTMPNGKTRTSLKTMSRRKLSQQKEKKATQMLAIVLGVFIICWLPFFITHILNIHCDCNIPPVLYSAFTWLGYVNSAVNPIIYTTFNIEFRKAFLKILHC
T3 sequence (P35462 whole entry): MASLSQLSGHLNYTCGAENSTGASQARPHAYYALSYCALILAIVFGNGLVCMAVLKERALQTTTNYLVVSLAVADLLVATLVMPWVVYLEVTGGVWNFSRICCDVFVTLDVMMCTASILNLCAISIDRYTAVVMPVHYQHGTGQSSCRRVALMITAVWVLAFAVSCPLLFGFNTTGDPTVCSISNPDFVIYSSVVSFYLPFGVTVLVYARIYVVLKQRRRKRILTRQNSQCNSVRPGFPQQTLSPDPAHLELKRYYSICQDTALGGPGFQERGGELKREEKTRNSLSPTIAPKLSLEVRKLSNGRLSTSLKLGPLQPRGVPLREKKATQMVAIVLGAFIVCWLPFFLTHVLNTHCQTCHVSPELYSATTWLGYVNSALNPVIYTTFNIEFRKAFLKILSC

| Compound | Ki [1] [nM] | Ki [2] [nM] | Ki [3] |
| --- | --- | --- | --- |
| 1-(4-Ethoxy-phenyl)-3-{4-[4-(4-fluoro-benzoyl)-piperidin-1-yl]-butyl}-urea [Example 70] | 2710 | 22 | 97 nM |
| O=C(NC[C@@H]1C[C@H]1CN1CCC(C(=O)c2ccc(F)cc2)CC1)Nc1ccc(Cl)cc1 (relative stereo) [Example 46, 1-(4-Chloro-phenyl)-3-{Trans-2-[4-(4-fluoro-benzoyl)-piperidin-1-ylmethyl]-cyclopropylmethyl}-urea] | 30 | 2 | 15 nM |
| O=C(N[C@H]1CC[C@H](CCN2CCC(C(=O)c3ccc(F)cc3F)CC2)CC1)C1CCOC1 (relative stereo) [Example 61, Tetrahydro-furan-3-carboxylic acid trans (4-{2-[4-(2,4-difluoro-benzoyl)-piperidin-1-yl]-ethyl}-cyclohexyl)-amide] | 2900 | 64 | 35 nM |
| O=C(N[C@H]1CC[C@H](CCN2CCC(C(=O)c3ccc(F)cc3)CC2)CC1)c1ccc(-n2cccc2)cc1 [Example 9] | 106 | 2 | 6 nM |
| CC(C)(C(=O)N[C@H]1CC[C@H](CCN2CCC(C(=O)c3ccc(F)cc3)CC2)CC1)c1ccc(Cl)cc1 [Example 14, 2-(4-Chloro-phenyl)-N-trans (4-{2-[4-(4-fluoro-benzoyl)-piperidin-1-yl]-ethyl}-cyclohexyl)-isobutyramide] | 96 | 12 | 144 nM |
| O=C(N[C@H]1CC[C@H](CCN2CCC(C(=O)c3ccc(F)cc3)CC2)CC1)c1ccnc2ncccc12 [Example 20, [1,8]Naphthyridine-4-carboxylic acid trans-(4-{2-[4-(4-fluoro-benzoyl)-piperidin-1-yl]-ethyl}-cyclohexyl)-amide] | 586 | 5 | 18 nM |
| O=C(N[C@H]1CC[C@H](CCN2CCC(C(=O)c3ccc(F)cc3)CC2)CC1)c1ccc(Cl)cc1Cl [Example 22, 2,4-Dichloro-N-trans (4-{2-[4-(4-fluoro-benzoyl)-piperidin-1-yl]-ethyl}-cyclohexyl)-benzamide] | 149 | 4 | 15 nM |
| O=C(N[C@H]1CC[C@H](CCN2CCC(C(=O)c3ccc(F)cc3)CC2)CC1)c1ccc(S(=O)(=O)c2ccc(Cl)cc2)cc1 [Example 23, 4-(4-Chloro-benzenesulfonyl)-N-trans (4-{2-[4-(4-fluoro-benzoyl)-piperidin-1-yl]-ethyl}-cyclohexyl)-benzamide] | 73 | 5 | 72 nM |
| CCOCCC(=O)N[C@H]1CC[C@H](CCN2CCC(C(=O)c3ccc(F)cc3)CC2)CC1 [Example 25, 3-Ethoxy-N-trans (4-{2-[4-(4-fluoro-benzoyl)-piperidin-1-yl]-ethyl}-cyclohexyl)-propionamide] | 777 | 269 | 13 nM |
| O=C(CC(F)(F)F)N[C@H]1CC[C@H](CCN2CCC(C(=O)c3ccc(F)cc3)CC2)CC1 [Example 26, 3,3,3-Trifluoro-N-trans-(4-{2-[4-(4-fluoro-benzoyl)-piperidin-1-yl]-ethyl}-cyclohexyl)-propionamide] | 684 | 14 | 17 nM |
| O=C(N[C@H]1CC[C@H](CCN2CCC(C(=O)c3ccc(F)cc3)CC2)CC1)C1CCCCC1 [Example 29, Cyclohexanecarboxylic acid trans-(4-{2-[4-(4-fluoro-benzoyl)-piperidin-1-yl]-ethyl}-cyclohexyl)-amide] | 450 | 8 | 32 nM and 37 nM |
| O=C(N[C@H]1CC[C@H](CCN2CCC(C(=O)c3ccc(F)cc3)CC2)CC1)c1ccc(N2CCOCC2)nn1 [Example 30A25, 6-Morpholin-4-yl-pyridazine-3-carboxylic acid trans (4-{2-[4-(4-fluoro-benzoyl)-piperidin-1-yl]-ethyl}-cyclohexyl)-amide] | 1280 | 5 | 26 nM |
| O=C(CCOc1ccccc1)N[C@H]1CC[C@H](CCN2CCC(C(=O)c3ccc(F)cc3)CC2)CC1 [Example 30A27, N-trans (4-{2-[4-(4-Fluoro-benzoyl)-piperidin-1-yl]-ethyl}-cydohexyl)-3-phenoxy-propionamide] | 1120 | 8 | 8 nM |
| O=C(C#Cc1ccccc1)N[C@H]1CC[C@H](CCN2CCC(C(=O)c3ccc(F)cc3)CC2)CC1 [Example 30A28, 3-Phenyl-propynoic acid trans (4-{2-[4-(4-fluoro-benzoyl)-piperidin-1-yl]-ethyl}-cyclohexyl)-amide] | 470 | 5 | 9 nM |
| CC(C)(CO)C(=O)N[C@H]1CC[C@H](CCN2CCC(C(=O)c3ccc(F)cc3)CC2)CC1 [Example 30A29, N-trans (4-{2-[4-(4-Fluoro-benzoyl)-piperidin-1-yl]-ethyl}-cyclohexyl)-3-hydroxy-2,2-dimethyl-propionamide] | 1010 | 25 | 207 nM |
| Cc1cc(CC(=O)N[C@H]2CC[C@H](CCN3CCC(C(=O)c4ccc(F)cc4)CC3)CC2)on1 [Example 30A36] | 1280 | 5 | 26 nM |
| COc1cc(CC(=O)N[C@H]2CC[C@H](CCN3CCC(C(=O)c4ccc(F)cc4)CC3)CC2)cc(OC)c1 [Example 30A37, 2-(3,5-Dimethoxy-phenyl)-N-trans (4-{2-[4-(4-fluoro-benzoyl)-piperidin-1-yl]-ethyl}-cyclohexyl)-acetamide] | 2000 | 11 | 29 nM |
| CC(=O)OCC(=O)N[C@H]1CC[C@H](CCN2CCC(C(=O)c3ccc(F)cc3)CC2)CC1 [Example 30A58, Acetic acid trans (4-{2-[4-(4-fluoro-benzoyl)-piperidin-1-yl]-ethyl}-cyclohexylcarbamoyl)-methyl ester] | 2070 | 15 | 30 nM |
| O=C(c1ccc(F)cc1)C1CCN(CC[C@H]2CC[C@H](NC(=O)C3(O)CC3)CC2)CC1 [Example 30A59, 1-Hydroxy-cyclopropanecarboxylic acid (trans-4-{2-[4-(4-fluoro-benzoyl)-piperidin-1-yl]-ethyl}-cyclohexyl)-amide] | 888 | 5 | 19 nM |
| COC(=O)N[C@H]1CC[C@H](CCN2CCC(C(=O)c3ccc(F)cc3)CC2)CC1 [Example 30A64, Trans (4-{2-[4-(4-Fluoro-benzoyl)-piperidin-1-yl]-ethyl}-cyclohexyl)-carbamic acid methyl ester] | 625 | 13 | 19 nM |
| O=C(N[C@H]1CC[C@H](CCN2CCC(O)(C(=O)c3ccccc3)CC2)CC1)c1ccnc2ccccc12 [Example 33, Quinoline-4-carboxylic acid trans-{4-[2-(4-benzoyl-4-hydroxy-piperidin-1-yl)-ethyl]-cyclohexyl}-amide] | 1980 | 65 | 110 nM |
| O=C(N[C@H]1CC[C@H](CCN2CCC(F)(C(=O)c3ccccc3)CC2)CC1)c1ccnc2ccccc12 [Example 34, Quinoline-4-carboxylic acid trans-{4-[2-(4-benzoyl-4-fluoro-piperidin-1-yl)-ethyl]-cyclohexyl}-amide] | 192 | 6 | 23 nM |
| Cc1ccc(NC(=O)N[C@H]2CC[C@H](CCN3CCC(C(=O)c4ccc(F)cc4)CC3)CC2)cc1 [Example 41, Trans-1-(4-{2-[4-(4-Fluoro-benzoyl)-piperidin-1-yl]-ethyl}-cyclohexyl)-3-p-tolyl-urea] | 677 | 11 | 4 nM |
